Laboratory results taken from the supplement of paper PMC10307832.

Tests used:
Assay in all cases: relative viability (nuclei count vs DMSO), 5 days (fraction); higher = more cells survive
EMC-BAC-2 = system: EMC-BAC-2
Summary of the method: (§1)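 Relative viability is defined as nuclei in treated wells over nuclei in vehicle wells. Duplicate plates were run and medians reported. Lung cancer cell lines in 1536-well plates were dosed by pin tool one day after seeding, with one drug or with a fixed anchor-drug dose plus five library-drug doses (not always all listed) in √10 steps, and nuclei were counted after 5 days.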

HCC-366 = system: HCC-366
Summary of the method: as §1

HCC-78 = system: HCC-78
Summary of the method: as §1

LCLC-97TM1 = system: LCLC-97TM1
Summary of the method: as §1

NCI-H1395 = system: NCI-H1395
Summary of the method: as §1

NCI-H1648 = system: NCI-H1648
Summary of the method: as §1

NCI-H1703 = system: NCI-H1703
Summary of the method: as §1

A549 = system: A549
Summary of the method: as §1

IA-LM = system: IA-LM
Summary of the method: as §1

Structure (SMILES) | relative viability (EMC-BAC-2; first compound 0.001 µM) | relative viability (EMC-BAC-2; first compound 0.003162 µM) | relative viability (EMC-BAC-2; first compound 0.01 µM) | relative viability (EMC-BAC-2; first compound 0.03162 µM) | relative viability (EMC-BAC-2; first compound 0.1 µM) | relative viability (HCC-366; first compound 0.001 µM) | relative viability (HCC-366; first compound 0.003162 µM) | relative viability (HCC-366; first compound 0.01 µM) | relative viability (HCC-366; first compound 0.03162 µM) | relative viability (HCC-366; first compound 0.1 µM) | relative viability (HCC-78; first compound 0.001 µM) | relative viability (HCC-78; first compound 0.003162 µM) | relative viability (HCC-78; first compound 0.01 µM) | relative viability (HCC-78; first compound 0.03162 µM) | relative viability (HCC-78; first compound 0.1 µM) | relative viability (LCLC-97TM1; first compound 0.003162 µM) | relative viability (NCI-H1395; first compound 0.001 µM) | relative viability (NCI-H1395; first compound 0.01 µM) | relative viability (NCI-H1395; first compound 0.03162 µM) | relative viability (NCI-H1395; first compound 0.1 µM) | also measured
Cc1cn(-c2cc(NC(=O)c3ccc(C)c(Nc4nccc(-c5cccnc5)n4)c3)cc(C(F)(F)F)c2)cn1 [Nilotinib] + NC(=O)Nc1cc(-c2cccc(F)c2)sc1C(=O)N[C@H]1CCCNC1 [AZD7762] (partner 0.2 µM) | 1.05 | 1.02 | 1.14 | 1.02 | 1.03 | 0.18 | 0.231 | 0.264 | 0.204 | 0.115 | 0.668 | 0.442 | 0.725 | 0.58 | 0.628 | 0.366 | 0.4 | 0.37 | 0.361 | 0.362 | relative viability (LCLC-97TM1; first compound 0.1 µM): 0.0966; relative viability (NCI-H1648; first compound 0.001 µM): 0.561; relative viability (NCI-H1648; first compound 0.003162 µM): 0.664; relative viability (NCI-H1648; first compound 0.01 µM): 0.663; relative viability (NCI-H1648; first compound 0.03162 µM): 0.569; relative viability (NCI-H1648; first compound 0.1 µM): 0.65; relative viability (NCI-H1703; first compound 0.001 µM): 0.117; relative viability (NCI-H1703; first compound 0.003162 µM): 0.121; relative viability (NCI-H1703; first compound 0.01 µM): 0.11; relative viability (NCI-H1703; first compound 0.03162 µM): 0.121; relative viability (NCI-H1703; first compound 0.1 µM): 0.117
Cc1cn(-c2cc(NC(=O)c3ccc(C)c(Nc4nccc(-c5cccnc5)n4)c3)cc(C(F)(F)F)c2)cn1 [Nilotinib] + Nc1ncn([C@H]2C[C@H](O)[C@@H](CO)O2)c(=O)n1 [Decitabine] (partner 2 µM) | 0.974 | 0.996 | 1.02 | 0.94 | 1 | 0.325 | 0.348 | 0.41 | 0.445 | 0.37 | 0.702 | 0.576 | 0.666 | 0.669 | 0.658 | 0.283 | 0.745 | 0.798 | 0.707 | 0.891 | relative viability (A549; first compound 0.001 µM): 0.199; relative viability (A549; first compound 0.01 µM): 0.386; relative viability (A549; first compound 0.03162 µM): 0.198; relative viability (A549; first compound 0.1 µM): 0.116; relative viability (LCLC-97TM1; first compound 0.001 µM): 0.201; relative viability (LCLC-97TM1; first compound 0.01 µM): 0.279; relative viability (LCLC-97TM1; first compound 0.03162 µM): 0.321; relative viability (NCI-H1648; first compound 0.001 µM): 0.588; relative viability (NCI-H1648; first compound 0.003162 µM): 0.496; relative viability (NCI-H1648; first compound 0.01 µM): 0.476; relative viability (NCI-H1648; first compound 0.03162 µM): 0.497; relative viability (NCI-H1648; first compound 0.1 µM): 0.469
Cc1cn(-c2cc(NC(=O)c3ccc(C)c(Nc4nccc(-c5cccnc5)n4)c3)cc(C(F)(F)F)c2)cn1 [Nilotinib] + O=C(CCCCCCC(=O)Nc1ccccc1)NO [Vorinostat] (partner 1 µM) | 0.369 | 0.339 | 0.429 | 0.319 | 0.33 | 0.33 | 0.361 | 0.364 | 0.27 | 0.212 | 0.483 | 0.512 | 0.553 | 0.4 | 0.565 | 0.891 | 0.728 | 0.616 | 0.59 | 0.473 | relative viability (IA-LM; first compound 0.001 µM): 0.526; relative viability (IA-LM; first compound 0.01 µM): 0.987; relative viability (IA-LM; first compound 0.03162 µM): 0.352; relative viability (IA-LM; first compound 0.1 µM): 0.841; relative viability (LCLC-97TM1; first compound 0.001 µM): 0.605; relative viability (LCLC-97TM1; first compound 0.01 µM): 0.964; relative viability (LCLC-97TM1; first compound 0.03162 µM): 0.515; relative viability (LCLC-97TM1; first compound 0.1 µM): 0.102; relative viability (NCI-H1648; first compound 0.001 µM): 0.394; relative viability (NCI-H1648; first compound 0.003162 µM): 0.367; relative viability (NCI-H1648; first compound 0.01 µM): 0.372; relative viability (NCI-H1648; first compound 0.03162 µM): 0.172
